Results reported in ChEMBL document CHEMBL1151438, “In vitro resistance study of rupintrivir, a novel inhibitor of human rhinovirus 3C protease” (Antimicrob Agents Chemother, 2007).

Tests used:
[1] = test system: rhinovirus B14; assay: Antiviral activity against HRV14 with 3C protease T129A mutation infected in human H1-HeLa cells assessed as virus-induced cytopathic effect after 3 days by XTT assay; assay type: functional, organism-based; settings: Rhinovirus B, 72 h
[2] = test system: rhinovirus A2; assay: Ratio of EC50 for HRV2 infected in human H1-HeLa cells after 9 passages for 62 days to EC50 for wild type HRV2 infected in human H1-HeLa cells; assay type: functional
[3] = test system: rhinovirus A39; assay: Antiviral activity against wild type HRV39 infected in human H1-HeLa cells assessed as virus-induced cytopathic effect after 3 days by XTT assay; assay type: functional, organism-based; settings: Rhinovirus A, 72 h
[4] = test system: rhinovirus B14; assay: Antiviral activity against HRV14 with 3C protease A121A/V, T129A, T131A, T143P, Y139Y/H mutation infected in human H1-HeLa cells assessed as virus-induced cytopathic effect after 11 passages for 65 days by XTT assay; assay type: functional, organism-based; settings: Rhinovirus B
[5] = test system: rhinovirus B14; assay: Ratio of EC50 for HRV14 with 3C protease Y139H mutation infected in human H1-HeLa cells to EC50 for wild type HRV14 infected in human H1-HeLa cells; assay type: functional
[6] = test system: rhinovirus B14; assay: Antiviral activity against HRV14 with 3C protease Y139H mutation infected in human H1-HeLa cells assessed as virus-induced cytopathic effect after 3 days by XTT assay; assay type: functional, organism-based; settings: Rhinovirus B, 72 h
[7] = test system: rhinovirus B14; assay: Antiviral activity against HRV14 with 3C protease T131A mutation infected in human H1-HeLa cells assessed as virus-induced cytopathic effect after 3 days by XTT assay; assay type: functional, organism-based; settings: Rhinovirus B, 72 h
[8] = test system: rhinovirus B14; assay: Antiviral activity against HRV14 with 3C protease T129A, T131A, Y139H, T143P mutation infected in human H1-HeLa cells assessed as virus-induced cytopathic effect after 3 days by XTT assay; assay type: functional, organism-based; settings: Rhinovirus B, 72 h
[9] = test system: rhinovirus A2; assay: Ratio of EC50 for HRV2 infected in human H1-HeLa cells after 2 passages for 10 days to EC50 for wild type HRV2 infected in human H1-HeLa cells; assay type: functional
[10] = test system: rhinovirus A39; assay: Ratio of EC50 for HRV39 infected in human H1-HeLa cells after 5 passages for 29 days to EC50 for wild type HRV39 infected in human H1-HeLa cells; assay type: functional
[11] = test system: Human rhinovirus sp.; assay: Ratio of EC50 for HRV Hanks with 3C protease T130A mutation infected in human H1-HeLa cells after 6 passages for 40 days to EC50 for wild type HRV Hanks infected in human H1-HeLa cells; assay type: functional
[12] = test system: rhinovirus B14; assay: Ratio of EC50 for HRV14 infected in human H1-HeLa cells after 1 passage for 6 days to EC50 for wild type HRV14 infected in human H1-HeLa cells; assay type: functional
[13] = test system: rhinovirus A39; assay: Ratio of EC50 for HRV39 infected in human H1-HeLa cells after 2 passages for 12 days to EC50 for wild type HRV39 infected in human H1-HeLa cells; assay type: functional
[14] = test system: rhinovirus B14; assay: Ratio of EC50 for HRV14 infected in human H1-HeLa cells after 6 passages for 27 days to EC50 for wild type HRV14 infected in human H1-HeLa cells; assay type: functional

`CCOC(=O)/C=C/[C@H](C[C@@H]1CCNC1=O)NC(=O)[C@@H](CC(=O)[C@@H](NC(=O)c1cc(C)on1)C(C)C)Cc1ccc(F)cc1` [RUPINTRIVIR] was tested, and the EC50 [1] was 14 nM, the “Ratio EC50” value [2] was 15 and the EC50 [3] was 24 nM. The EC50 [4] was 335 nM, the “Ratio EC50” value [5] was 1 and the EC50 [6] was 14 nM. The EC50 [7] was 14 nM, the EC50 [8] was 268 nM and the “Ratio EC50” value [9] was 1. The “Ratio EC50” value [10] was 6, the “Ratio EC50” value [11] was 3 and the “Ratio EC50” value [12] was 3.5. The “Ratio EC50” value [13] was 4 and the “Ratio EC50” value [14] was 20.
